Tested on: KK-A^y mice
Experiment: Effects on carbohydrate and lipid metabolism in KK-A^y mouse
Assay type: in vivo
Conditions: oral, 4 days; for Percent change of each parameter compared to control group (%): AI: Atherogenic Index = (TC − HDL-C)/HDL-C; for Percent change of each parameter compared to control group (%): BG: plasma glucose level; for Percent change of each parameter compared to control group (%): Ins: plasma insulin level; for Percent change of each parameter compared to control group (%): TG: plasma triglyceride level; for Percent change of each parameter compared to control group (%): HDL-C: serum HDL-C level; for Percent change of each parameter compared to control group (%): (V)LDL-C: sum of VLDL-C and LDL-C level in serum
Description: The experiment was conducted using the compounds described in the Examples as test compounds and Troglitazone (5-[4-(6-hydroxy-2,5,7,8-tetramethylchroman-2-ylmethoxy)benzyl]-2,4-thiazolidinedione) as a control compound.
Each test compound was orally administered to KK-A^y mice (10 week old, male), NIDDM model animal, for 4 days at a given dosage. On the next day of the last administration, blood was collected from tail end blood vessels under non-fasting conditions to prepare heparinized plasma. Thereafter, blood was collected from an abdominal large vein under pentobarbital anesthesia to prepare serum. The glucose level (BG), triglyceride level (TG) and insulin level (Ins) in plasma were measured using a glucose CII-test Wako (Wako Pure Chemical Industries, Ltd), CLINTECH TG-S (IATORON LABORATORIES, INC.) or triglyceride E-test WAKO (Wako Pure Chemical Industries, Ltd), and a rat insulin measurement kit (Morinaga Biochemistry Research Institute) or REBIS-insulin-mouse-T (Mouse Insulin ELISA (TMB) KIT, Shibayagi Co., Ltd), respectively. Also, the sum of VLDL-C level and LDL-C level in serum (hereinafter, referred to as “(V)LDL-C”), total cholesterol level (TC) and HDL-C level were measured using a high performance liquid chromatography system for the measurement of lipoprotein cholesterol (TOSOH CORPORATION). (V)LDL-C level was measured because VLDL-C and LDL-C cannot be measured separately. Atherogenic Index (AI) was calculated according to the following formula: AI=[(TC level)−(HDL-C level)]/(HDL-C level).

Compound | Percent change of each parameter compared to control group (%): AI (dose 1 mg/kg) | Percent change of each parameter compared to control group (%): BG (dose 1 mg/kg) | Percent change of each parameter compared to control group (%): Ins (dose 1 mg/kg) | Percent change of each parameter compared to control group (%): TG (dose 1 mg/kg) | Percent change of each parameter compared to control group (%): HDL-C (dose 1 mg/kg) | Percent change of each parameter compared to control group (%): (V)LDL-C (dose 1 mg/kg) | Percent change of each parameter compared to control group (%): AI (dose 3 mg/kg) | Percent change of each parameter compared to control group (%): BG (dose 3 mg/kg) | Percent change of each parameter compared to control group (%): Ins (dose 3 mg/kg) | Percent change of each parameter compared to control group (%): TG (dose 3 mg/kg) | Percent change of each parameter compared to control group (%): HDL-C (dose 3 mg/kg) | Percent change of each parameter compared to control group (%): (V)LDL-C (dose 3 mg/kg) | also measured
Cc1oc(-c2ccccc2)nc1CCCCC1COC(C)(C(=O)O)OC1 (stereo not drawn) [Example 9, 2-Methyl-c-5-[4-(5-methyl-2-phenyloxazol-4-yl)butyl]-1,3-dioxane-r-2-carboxylic acid] | −49% | −12% | −36% | −46% | 36% | −29% | – | – | – | – | – | – | –
Cc1ccc(-c2nc(CCCCC3COC(C)(C(=O)O)OC3)c(C)o2)cc1 (stereo not drawn) [Example 11, 2-Methyl-c-5-{4-[5-methyl-2-(p-tolyl)oxazol-4-yl]butyl}-1,3-dioxane-r-2-carboxylic acid] | – | – | – | – | – | – | −91% | −36% | −16% | −83% | 11% | −89% | –
CC1(C(=O)O)OCC(CCCCc2coc(-c3ccccc3)n2)CO1 (stereo not drawn) [Example 14, 2-Methyl-c-5-[4-(2-phenyloxazol-4-yl)butyl]-1,3-dioxane-r-2-carboxylic acid] | −45% | −22% | −67% | −29% | 19% | −38% | – | – | – | – | – | – | –
Cc1oc(-c2ccc(C(C)(C)C)cc2)nc1CCCCC1COC(C)(C(=O)O)OC1 (stereo not drawn) [Example 18, c-5-{4-[2-(4-tert-Butylphenyl)-5-methyloxazol-4-yl]butyl}-2-methyl-1,3-dioxane-r-2-carboxylic acid] | – | – | – | – | – | – | −65% | −12% | −1% | −43% | 76% | −20% | –
Cc1oc(-c2ccc(C(F)(F)F)cc2)nc1CCCCC1COC(C)(C(=O)O)OC1 (stereo not drawn) [Example 20, 2-Methyl-c-5-{4-[5-methyl-2-(4-trifluoromethylphenyl)-oxazol-4-yl]butyl}-1,3-dioxane-r-2-carboxylic acid] | −44% | −15% | −44% | −31% | 30% | −33% | – | – | – | – | – | – | –
CCC1(C(=O)O)OCC(CCCCc2nc(-c3ccccc3)oc2C)CO1 (stereo not drawn) [Example 21, 2-Ethyl-c-5-[4-(5-methyl-2-phenyloxazol-4-yl)butyl]-1,3-dioxane-r-2-carboxylic acid] | – | – | – | – | – | – | −38% | −18% | −26% | −52% | 5% | −26% | –
Cc1ccc(-c2nc(CCCCCCOC(C)(C)C(=O)O)c(C)o2)cc1 [Example 37, 2-Methyl-2-{6-[5-methyl-2-(p-tolyl)oxazol-4-yl]hexyloxy}propionic acid] | – | – | – | – | – | – | −70% | −5% | −27% | −51% | 33% | −54% | –
Cc1oc(-c2ccccc2)nc1CC#CCCCOC(C)(C)C(=O)O [Example 38, 2-Methyl-2-[6-(5-methyl-2-phenyloxazol-4-yl)-4-hexynyloxy]propionic acid] | −65% | −21% | −39% | −50% | 38% | −38% | – | – | – | – | – | – | –
Cc1oc(-c2ccc(Cl)cc2)nc1CCCCCCOC(C)(C)C(=O)O [Example 39, 2-{6-[2-(4-Chlorophenyl)-5-methyloxazol-4-yl]hexyloxy}-2-methylpropionic acid] | −73% | −14% | −20% | −56% | 36% | −53% | – | – | – | – | – | – | –
Cc1oc(-c2ccccc2)nc1/C=C/CCC1COC(C)(C(=O)O)OC1 (stereo not drawn) [Example 53, 2-Methyl-c-5-[4-(5-methyl-2-phenyloxazol-4-yl)-(E)-3-butenyl]-1,3-dioxane-r-2-carboxylic acid] | – | – | – | – | – | – | −62% | −46% | −37% | −51% | 3% | −49% | –
Cc1oc(-c2ccccc2)nc1C/C=C/CCCOC(C)(C)C(=O)O [Example 54, Potassium 2-methyl-2-[6-(5-methyl-2-phenyloxazol-4-yl)-(E)-4-hexenyloxy]propionate] | −83% | −24% | −14% | −72% | 24% | −77% | – | – | – | – | – | – | –
Cc1oc(-c2ccccc2)nc1CCCCCCOC(C)(C)CO [Example 55, 2-Methyl-2-[6-(5-methyl-2-phenyloxazol-4-yl)hexyloxy]-propanol] | – | – | – | – | – | – | – | – | – | – | – | – | Percent change of each parameter compared to control group (%): AI (dose 10 mg/kg): −72%; Percent change of each parameter compared to control group (%): BG (dose 10 mg/kg): −22%; Percent change of each parameter compared to control group (%): Ins (dose 10 mg/kg): 2%; Percent change of each parameter compared to control group (%): TG (dose 10 mg/kg): −45%; Percent change of each parameter compared to control group (%): HDL-C (dose 10 mg/kg): 62%; Percent change of each parameter compared to control group (%): (V)LDL-C (dose 10 mg/kg): −44%
Cc1ccc(-c2nc(CCCCC3COC(C)(C(=O)O)OC3)c(C)o2)cc1F (stereo not drawn) [Example 64, 2-Methyl-c-5-{4-[5-methyl-2-(3-fluoro-4-methylphenyl)-oxazol-4-yl]butyl}-1,3-dioxane-r-2-carboxylic acid] | −72% | −12% | −20% | −53% | 21% | −63% | – | – | – | – | – | – | –
Cc1ccc(-c2nc(CCCCC3COC(C)(C(=O)O)OC3)c(C)s2)cc1 (stereo not drawn) [Example 70, 2-Methyl-c-5-{4-[5-methyl-2-(p-tolyl)thiazol-4-yl]-butyl}-1,3-dioxane-r-2-carboxylic acid] | – | – | – | – | – | – | −53% | −15% | 5% | −37% | 41% | −33% | –
Cc1cccc(-c2nc(CCCCC3COC(C)(C(=O)O)OC3)c(C)o2)c1 (stereo not drawn) [Example 71, 2-Methyl-c-5-{4-[5-methyl-2-(m-tolyl)oxazol-4-yl]butyl}-1,3-dioxane-r-2-carboxylic acid] | – | – | – | – | – | – | −90% | −51% | −61% | −89% | 1% | −90% | –

Reference: patent US7030143B2, “Heterocyclic compounds” (Nippon Shinyaku Co., Ltd., priority 2000, dated 2006)
